Reference: patent US10072045B1, “Antibacterial lipopeptides and methods for their preparation and use” (priority 2017, dated 2018)
Values after ≈ are worked out from the molar mass of the structure shown. Read-outs that look alike come from different tables or passages of the source.

Experiments:
Assay type in all cases: cell-based
[1] = test system: Methicillin-Resistant Staphylococcus aureus (MRSA, ATCC33591); experiment: microbe, parasite or virus in culture; conditions: for potency relative to daptomycin against MRSA: fold as potent as daptomycin
Experimental: (§1) See, Balouiri, M.; Sadiki, M.; Ibnsouda, S. K.; Methods for In vitro evaluation of antimicrobial activity: review. Journal of Pharmaceutical Analysis, 2016, 6 (2), 71-79; CLSI, Methods for Dilution Antimicrobial Susceptibility Tests for Bacteria that Grow Aerobically, Approved Standard, 9th Ed, CLSI document M07-A9. Approximately 50 μl of the bacterial (MRSA or MSSA) cell suspension (1.0×10^6/ml) inoculated in each well (96-micro well plate) containing 50 μl of dosing solution and plates were incubated at 37±+1C for 18 hrs. After the incubation, bacterial growth in each well of 96-well plate were calorimetrically measured by a Biotek microtiter plate reader at 630 nm. The bacterial growth inhibition (GI) is expressed as a percentage relative to the negative control.
Methicillin-Resistant Staphylococcus aureus (MRSA, ATCC33591)

[2] = test system: Vancomycin-Resistant Enterococci faecium (VRE, ATCC 700221); experiment: microbe, parasite or virus in culture
Experimental: as §1
(§2) Vancomycin-Resistant Enterococci faecium (VRE, ATCC 700221);

[3] = test system: Vancomycin-Resistant Enterococci faecalis (VRE, ATCC 51299); experiment: microbe, parasite or virus in culture
Experimental: as §1
(§3) Vancomycin-Resistant Enterococci faecalis (VRE, ATCC 51299);

[4] = test system: Vancomycin-Sensitive Enterococci faecalis (VSE, ATCC 29212); experiment: microbe, parasite or virus in culture
Experimental: as §1
Vancomycin-Sensitive Enterococci faecalis (VSE, ATCC 29212);

[5] = test system: Vancomycin-Sensitive Enterococci hirae (VSE, ATCC 1056); experiment: microbe, parasite or virus in culture
Experimental: as §1
Vancomycin-Sensitive Enterococci hirae (VSE, ATCC 1056).

[6] = test system: Vancomycin-Resistant Enterococci (VRE); experiment: Potency against VRE relative to daptomycin (Test C); conditions: fold better potency; strain not specified
Experimental: as §1, §2, §3

[7] = test system: Methicillin-Sensitive Staphylococcus aureus (MSSA, ATCC6538); experiment: microbe, parasite or virus in culture; conditions: read-out: Minimum Inhibitory Concentration (MIC) MSSA (ATCC6538)
Experimental: as §1
Methicillin-Sensitive Staphylococcus aureus (MSSA, ATCC6538)

[8] = test system: Methicillin-Resistant Staphylococcus aureus (MRSA, PBR Lab Culture#1152); experiment: microbe, parasite or virus in culture; conditions: Test B, read-out: Minimum Inhibitory Concentration (MIC) MRSA (PBR1152)
Experimental: as §1
Methicillin-Resistant Staphylococcus aureus (MRSA, PBR Lab Culture#1152)

| SMILES | Minimum Inhibitory Concentration (MIC) VRE (ATCC 700221) [2] | Minimum Inhibitory Concentration (MIC) VRE (ATCC 51299) [3] | Minimum Inhibitory Concentration (MIC) VSE (ATCC 29212) [4] | Minimum Inhibitory Concentration (MIC) VSE (ATCC 1056) [5] | further results |
| --- | --- | --- | --- | --- | --- |
| CN[C@H](CC(C)C)C(=O)N[C@H]1C(=O)N[C@@H](CC(N)=O)C(=O)N[C@H]2C(=O)N[C@H]3C(=O)N[C@H](C(=O)N[C@H](C(=O)O)c4cc(O)cc(O)c4-c4cc3ccc4O)[C@H](O)c3ccc(c(Cl)c3)Oc3cc2cc(c3O[C@@H]2O[C@H](CO)[C@@H](O)[C@H](O)[C@H]2O[C@H]2C[C@](C)(N)[C@H](O)[C@H](C)O2)Oc2ccc(cc2Cl)[C@H]1O [Vacomycin, reference compound] |  |  |  |  | MIC ([2]; Enterococcus, read-out: Minimum Inhibitory Concentration (MIC) VRE (ATCC 700221)): > 10 µM; MIC ([3]; Enterococcus, read-out: Minimum Inhibitory Concentration (MIC) VRE (ATCC 51299)): > 10 µM; MIC ([4]; Enterococcus faecalis, ATCC29212, read-out: Minimum Inhibitory Concentration (MIC) VSE (ATCC 29212)): 1.25 µM (≈ 1.81 µg/mL); MIC ([5]; Enterococcus hirae, ATCC1056, read-out: Minimum Inhibitory Concentration (MIC) VSE (ATCC 1056)): 0.313 µM (≈ 0.454 µg/mL) |
| COc1cccc(OC)c1C(=O)N[C@@H]1C(=O)N2[C@@H]1SC(C)(C)[C@@H]2C(=O)O [Methicillin] |  |  |  |  | MIC ([1]; Staphylococcus aureus, Test A, read-out: Minimum Inhibitory Concentration (MIC) MRSA (ATCC33591)): > 64 µg/mL; MIC ([7]; Test A): < 1 µg/mL; MIC ([7]; Test B): < 1 µg/mL; MIC [8]: > 64 µg/mL |
| CCCCCCCCCC(=O)N[C@@H](Cc1c[nH]c2ccccc12)C(=O)N[C@H](CC(N)=O)C(=O)N[C@@H](CC(=O)O)C(=O)N[C@@H]1C(=O)NCC(=O)N[C@@H](CCCN)C(=O)N[C@@H](CC(=O)O)C(=O)N[C@H](C)C(=O)N[C@@H](CC(=O)O)C(=O)NCC(=O)N[C@H](CO)C(=O)N[C@@H]([C@H](C)CC(=O)O)C(=O)N[C@@H](CC(=O)c2ccccc2N)C(=O)O[C@@H]1C [Daptomycin, reference compound] | 2.5 µM | 1.25 µM | 1.25 µM | 5.0 µM |  |

The next lines start with results.

| Minimum Inhibitory Concentration (MIC) VRE (ATCC 700221) [2] | Minimum Inhibitory Concentration (MIC) VRE (ATCC 51299) [3] | Minimum Inhibitory Concentration (MIC) VSE (ATCC 29212) [4] | Minimum Inhibitory Concentration (MIC) VSE (ATCC 1056) [5] | SMILES | further results |
| --- | --- | --- | --- | --- | --- |
| <0.156 µM | <0.156 µM | <0.156 µM | <0.156 µM | CCCCCCCCCC(=O)N[C@@H](Cc1c[nH]c2ccc(F)cc12)C(=O)N[C@H](CC(N)=O)C(=O)N[C@@H](CC(=O)O)C(=O)N[C@@H]1C(=O)NCC(=O)N[C@@H](CCCN)C(=O)N[C@@H](CC(=O)O)C(=O)N[C@H](C)C(=O)N[C@@H](CC(=O)O)C(=O)NCC(=O)N[C@H](CO)C(=O)N[C@@H]([C@H](C)CC(=O)O)C(=O)N[C@@H](CC(=O)c2cc(Cl)cc(Cl)c2NCC)C(=O)O[C@@H]1C [RP005] | potency relative to daptomycin against MRSA [1]: roughly 10 fold; potency relative to daptomycin against Vancomycin-Resistant Enterococci (VRE) [6]: roughly 10 fold |
| <0.156 µM | <0.156 µM | <0.156 µM | <0.156 µM | CCCCCCCCCC(=O)N[C@@H](Cc1c[nH]c2ccc(C)cc12)C(=O)N[C@H](CC(N)=O)C(=O)N[C@@H](CC(=O)O)C(=O)N[C@@H]1C(=O)NCC(=O)N[C@@H](CCCN)C(=O)N[C@@H](CC(=O)O)C(=O)N[C@H](C)C(=O)N[C@@H](CC(=O)O)C(=O)NCC(=O)N[C@H](CO)C(=O)N[C@@H]([C@H](C)CC(=O)O)C(=O)N[C@@H](CC(=O)c2cc(Cl)cc(Cl)c2NCC)C(=O)O[C@@H]1C [RP012] | potency relative to daptomycin against MRSA [1]: roughly 10 fold; potency relative to daptomycin against Vancomycin-Resistant Enterococci (VRE) [6]: roughly 10 fold |
| 1.25 µM | 0.625 µM | 0.625 µM | 5.0 µM | CCCCCCCCCC(=O)N[C@@H](Cc1c[nH]c2ccccc12)C(=O)N[C@H](CC(N)=O)C(=O)N[C@@H](CC(=O)O)C(=O)N[C@@H]1C(=O)NCC(=O)N[C@@H](CCCN)C(=O)N[C@@H](CC(=O)O)C(=O)N[C@H](C)C(=O)N[C@@H](CC(=O)O)C(=O)NCC(=O)N[C@H](CO)C(=O)N[C@@H]([C@H](C)CC(=O)O)C(=O)N[C@@H](CC(=O)c2ccccc2NCC)C(=O)O[C@@H]1C [RP001] |  |
| 0.625 µM | <0.156 µM | 0.313 µM | 1.25 µM | CCCCCCCCCC(=O)N[C@@H](Cc1c[nH]c2ccc(C)cc12)C(=O)N[C@H](CC(N)=O)C(=O)N[C@@H](CC(=O)O)C(=O)N[C@@H]1C(=O)NCC(=O)N[C@@H](CCCN)C(=O)N[C@@H](CC(=O)O)C(=O)N[C@H](C)C(=O)N[C@@H](CC(=O)O)C(=O)NCC(=O)N[C@H](CO)C(=O)N[C@@H]([C@H](C)CC(=O)O)C(=O)N[C@@H](CC(=O)c2ccccc2NCC)C(=O)O[C@@H]1C [RP011] |  |
| 0.313 µM | <0.156 µM | <0.156 µM | 0.313 µM | CCCCCCCCCC(=O)N[C@@H](Cc1cn(C)c2ccccc12)C(=O)N[C@H](CC(N)=O)C(=O)N[C@@H](CC(=O)O)C(=O)N[C@@H]1C(=O)NCC(=O)N[C@@H](CCCN)C(=O)N[C@@H](CC(=O)O)C(=O)N[C@H](C)C(=O)N[C@@H](CC(=O)O)C(=O)NCC(=O)N[C@H](CO)C(=O)N[C@@H]([C@H](C)CC(=O)O)C(=O)N[C@@H](CC(=O)c2cc(Br)ccc2NCC)C(=O)O[C@@H]1C [RP008] |  |
